{"source": "paper PMC10482975", "about": "(Nature Communications, 2023)", "key": {"[1]": {"target": "T1, M4 mAChR WT (Homo sapiens, UniProt P08173)", "T1 construct": "expressed in transfected cells", "T1 sequence (P08173 1-479)": "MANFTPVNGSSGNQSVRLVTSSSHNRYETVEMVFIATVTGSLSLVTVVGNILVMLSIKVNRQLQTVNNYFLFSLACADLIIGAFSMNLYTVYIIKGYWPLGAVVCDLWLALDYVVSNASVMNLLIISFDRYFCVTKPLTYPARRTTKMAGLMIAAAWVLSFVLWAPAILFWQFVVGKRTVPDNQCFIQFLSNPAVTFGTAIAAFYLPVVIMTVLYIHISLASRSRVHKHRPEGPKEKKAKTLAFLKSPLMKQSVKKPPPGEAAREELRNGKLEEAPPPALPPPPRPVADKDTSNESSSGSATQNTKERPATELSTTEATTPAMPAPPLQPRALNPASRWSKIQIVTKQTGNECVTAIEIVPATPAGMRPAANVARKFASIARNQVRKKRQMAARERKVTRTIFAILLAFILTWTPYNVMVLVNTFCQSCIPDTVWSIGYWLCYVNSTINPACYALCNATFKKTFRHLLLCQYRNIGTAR", "assay": "[3H]-NMS radioligand dissociation binding, M4 mAChR WT", "conditions": "for [3H]-NMS binding remaining (0 min = 100), MEAN: M4 mAChR; for effect on [3H]-NMS dissociation (in words): wild-type M4 mAChR, increasing concentrations of xanomeline, saturating concentration of iperoxo", "method": "(§1) Flp-In Chinese hamster ovary (CHO) (Thermo Fisher Scientific) cells stably expressing mAChR WTs or mutant constructs were cultured in Dulbecco’s modified Eagle’s medium (DMEM, Invitrogen) containing 5% foetal bovine serum (FBS; ThermoTrace) and […] of hygromycin (Roche) in a humidified incubator (37 °C, 5% CO2). Upon reaching confluence, media was removed, cells were washed with phosphate buffered saline (PBS) and harvested from tissue culture flasks using versene (PBS with 0.2 g EDTA). Cells were then pelleted through centrifugation at 350 × g for three minutes followed by resuspension in DMEM + 5% FBS. Cells were then either plated for an assay or reseeded into a tissue culture flask."}, "[2]": {"target": "T2, M1 mAChR WT (Homo sapiens, UniProt P11229)", "T2 construct": "expressed in transfected cells", "T2 sequence (P11229 1-460)": "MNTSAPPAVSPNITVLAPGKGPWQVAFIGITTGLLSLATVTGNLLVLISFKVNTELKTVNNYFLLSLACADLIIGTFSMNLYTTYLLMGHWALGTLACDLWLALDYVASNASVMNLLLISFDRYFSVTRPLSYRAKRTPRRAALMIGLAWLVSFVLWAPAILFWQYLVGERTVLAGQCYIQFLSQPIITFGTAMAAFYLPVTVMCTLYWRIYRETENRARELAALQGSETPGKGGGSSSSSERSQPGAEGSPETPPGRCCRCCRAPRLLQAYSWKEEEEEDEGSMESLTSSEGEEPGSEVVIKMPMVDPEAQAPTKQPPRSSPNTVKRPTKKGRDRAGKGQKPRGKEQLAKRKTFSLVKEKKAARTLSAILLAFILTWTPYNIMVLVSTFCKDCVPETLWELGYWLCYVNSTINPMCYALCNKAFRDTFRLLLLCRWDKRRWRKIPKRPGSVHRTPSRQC", "format": "binding", "conditions": "10uM Atr + 10 μM Iperoxo", "method": "as §1"}, "[3]": {"target": "T3, M4 mAChR W435A (Homo sapiens, UniProt P08173, W435A)", "T3 construct": "expressed in transfected cells", "T3 sequence (P08173 1-479 W435A)": "T1 sequence (P08173 1-479) with W435A", "assay": "[3H]-NMS radioligand dissociation binding, M4 mAChR W435A", "set-up": "[3H]-NMS binding remaining vs Total Binding, MEAN: unit not given here", "conditions": "for [3H]-NMS binding remaining vs Total Binding, MEAN: M4 W435A mAChR, +100uM Xano", "method": "as §1"}, "[4]": {"target": "T4, M4 mAChR Q184A (Homo sapiens, UniProt P08173, Q184A)", "T4 construct": "expressed in transfected cells", "T4 sequence (P08173 1-479 Q184A)": "T1 sequence (P08173 1-479) with Q184A", "assay": "[3H]-NMS radioligand dissociation binding, M4 mAChR Q184A", "set-up": "unit not given here", "conditions": "+100uM Xano", "method": "as §1"}}, "note": "Numbering of substitutions follows the chain as printed. Read-outs that look alike come from different tables or passages of the source."}
{"smiles": "C[N+](C)(C)CC#CCOC1=NOCC1", "note": "[iperoxo]", "values": [{"measurement": "[3H]-NMS binding remaining (0 min = 100), MEAN", "setting": "[1]; 10uM Atr + 10 μM Iperoxo, 30 min", "value": 88.7252}, {"measurement": "[3H]-NMS binding remaining (0 min = 100), MEAN", "setting": "[1]; 10uM Atr + 10 μM Iperoxo, 90 min", "value": 52.6732}, {"measurement": "[3H]-NMS binding remaining (0 min = 100), MEAN", "setting": "[1]; 10uM Atr + 10 μM Iperoxo, 180 min", "value": 31.8571}, {"measurement": "[3H]-NMS binding remaining (0 min = 100), MEAN", "setting": "[1]; 10uM Atr + 10 μM Iperoxo, 300 min", "value": 17.3639}, {"measurement": "effect on [3H]-NMS dissociation (in words)", "setting": "[1]", "value": "had no effect"}, {"measurement": "[3H]-NMS binding remaining (0 min = 100), MEAN", "setting": "[2]; 10 min", "value": 87.0617}, {"measurement": "[3H]-NMS binding remaining (0 min = 100), MEAN", "setting": "[2]; 20 min", "value": 66.0557}, {"measurement": "[3H]-NMS binding remaining (0 min = 100), MEAN", "setting": "[2]; 40 min", "value": 41.8921}, {"measurement": "[3H]-NMS binding remaining (0 min = 100), MEAN", "setting": "[2]; 60 min", "value": 27.7899}, {"measurement": "[3H]-NMS binding remaining (0 min = 100), MEAN", "setting": "[2]; 90 min", "value": 20.387}, {"measurement": "[3H]-NMS binding remaining (0 min = 100), MEAN", "setting": "[2]; 120 min", "value": 14.5109}]}
{"smiles": "CCCCCCOc1nsnc1C1=CCCN(C)C1", "note": "[xanomeline]", "values": [{"measurement": "[3H]-NMS binding remaining vs Total Binding, MEAN", "setting": "[3]; Time 30 min", "value": 96.9648}, {"measurement": "[3H]-NMS binding remaining vs Total Binding, MEAN", "setting": "[3]; Time 60 min", "value": 87.005}, {"measurement": "[3H]-NMS binding remaining vs Total Binding, MEAN", "setting": "[3]; Time 90 min", "value": 77.1921}, {"measurement": "[3H]-NMS binding remaining vs Total Binding, MEAN", "setting": "[3]; Time 120 min", "value": 74.9315}, {"measurement": "[3H]-NMS binding remaining vs Total Binding, MEAN", "setting": "[3]; Time 180 min", "value": 64.2361}, {"measurement": "[3H]-NMS binding remaining vs Total Binding, MEAN", "setting": "[3]; Time 300 min", "value": 31.9462}, {"measurement": "effect on [3H]-NMS dissociation (in words)", "setting": "[3]; M4 mAChR W435A mutant", "value": "loss in xanomeline modulation"}, {"measurement": "[3H]-NMS binding remaining (0 min = 100), MEAN", "setting": "[1]; 10uM Atr + 10 μM Xano, 30 min", "value": 87.1248}, {"measurement": "[3H]-NMS binding remaining (0 min = 100), MEAN", "setting": "[1]; 10uM Atr + 10 μM Xano, 90 min", "value": 63.7927}, {"measurement": "[3H]-NMS binding remaining (0 min = 100), MEAN", "setting": "[1]; 10uM Atr + 10 μM Xano, 180 min", "value": 32.9493}, {"measurement": "[3H]-NMS binding remaining (0 min = 100), MEAN", "setting": "[1]; 10uM Atr + 10 μM Xano, 300 min", "value": 16.1247}, {"measurement": "[3H]-NMS binding remaining (0 min = 100), MEAN", "setting": "[1]; 10uM Atr + 30 μM Xano, 30 min", "value": 96.6093}, {"measurement": "[3H]-NMS binding remaining (0 min = 100), MEAN", "setting": "[1]; 10uM Atr + 30 μM Xano, 90 min", "value": 68.5782}, {"measurement": "[3H]-NMS binding remaining (0 min = 100), MEAN", "setting": "[1]; 10uM Atr + 30 μM Xano, 180 min", "value": 42.1853}, {"measurement": "[3H]-NMS binding remaining (0 min = 100), MEAN", "setting": "[1]; 10uM Atr + 30 μM Xano, 300 min", "value": 23.6351}, {"measurement": "[3H]-NMS binding remaining (0 min = 100), MEAN", "setting": "[1]; 10uM Atr + 100uM Xano, 30 min", "value": 97.9496}, {"measurement": "[3H]-NMS binding remaining (0 min = 100), MEAN", "setting": "[1]; 10uM Atr + 100uM Xano, 60 min", "value": 79.6399}, {"measurement": "[3H]-NMS binding remaining (0 min = 100), MEAN", "setting": "[1]; 10uM Atr + 100uM Xano, 180 min", "value": 54.7449}, {"measurement": "[3H]-NMS binding remaining (0 min = 100), MEAN", "setting": "[1]; 10uM Atr + 100uM Xano, 300 min", "value": 34.2485}, {"measurement": "effect on [3H]-NMS dissociation (in words)", "setting": "[1]", "value": "progressively slowed"}, {"measurement": "[3H]-NMS binding remaining vs Total Binding, MEAN", "setting": "[4]; Time 30 min", "value": 83.7482}, {"measurement": "[3H]-NMS binding remaining vs Total Binding, MEAN", "setting": "[4]; Time 60 min", "value": 84.3012}, {"measurement": "[3H]-NMS binding remaining vs Total Binding, MEAN", "setting": "[4]; Time 90 min", "value": 69.8323}, {"measurement": "[3H]-NMS binding remaining vs Total Binding, MEAN", "setting": "[4]; Time 120 min", "value": 76.4651}, {"measurement": "[3H]-NMS binding remaining vs Total Binding, MEAN", "setting": "[4]; Time 180 min", "value": 50.1077}, {"measurement": "[3H]-NMS binding remaining vs Total Binding, MEAN", "setting": "[4]; Time 300 min", "value": 18.2224}]}
